Test results: the kinase profiling compilation of Christmann-Franck et al. (2016)

How the values were obtained:
Test in all cases: KINOMEscan competition binding
Conditions in all cases: compound 10.0 µM
[1] = molecular target: PAK6 (human) (UniProt Q9NQU5)
[2] = test system: CPK1 (P.falciparum)
[3] = molecular target: IRAK3 (human) (UniProt Q9Y616)
[4] = molecular target: ACVR1B (human) (UniProt P36896)
[5] = molecular target: FLT1 (human) (UniProt P17948)
[6] = molecular target: PIP4K2C (human) (UniProt Q8TBX8)
[7] = molecular target: DAPK3 (human) (UniProt O43293)
[8] = molecular target: MARK1 (human) (UniProt Q9P0L2)
[9] = molecular target: MAP3K10 (human) (UniProt Q02779)
[10] = molecular target: STK3 (human) (UniProt Q13188)
[11] = molecular target: BRSK1 (human) (UniProt Q8TDC3)
[12] = molecular target: FGFR4 (human) (UniProt P22455)
[13] = test system: PIK3CA (human), P42336 [E542K]
[14] = molecular target: MAP2K7 (human) (UniProt O14733)
[15] = molecular target: CAMKK2 (human) (UniProt Q96RR4)
[16] = molecular target: RIPK2 (human) (UniProt O43353)
[17] = molecular target: TIE1 (human) (UniProt P35590)
[18] = molecular target: EPHA7 (human) (UniProt Q15375)
[19] = molecular target: CAMKK1 (human) (UniProt Q8N5S9)
[20] = molecular target: PLK3 (human) (UniProt Q9H4B4)
Chain of PLK3 (human) (Q9H4B4 whole entry, looked up): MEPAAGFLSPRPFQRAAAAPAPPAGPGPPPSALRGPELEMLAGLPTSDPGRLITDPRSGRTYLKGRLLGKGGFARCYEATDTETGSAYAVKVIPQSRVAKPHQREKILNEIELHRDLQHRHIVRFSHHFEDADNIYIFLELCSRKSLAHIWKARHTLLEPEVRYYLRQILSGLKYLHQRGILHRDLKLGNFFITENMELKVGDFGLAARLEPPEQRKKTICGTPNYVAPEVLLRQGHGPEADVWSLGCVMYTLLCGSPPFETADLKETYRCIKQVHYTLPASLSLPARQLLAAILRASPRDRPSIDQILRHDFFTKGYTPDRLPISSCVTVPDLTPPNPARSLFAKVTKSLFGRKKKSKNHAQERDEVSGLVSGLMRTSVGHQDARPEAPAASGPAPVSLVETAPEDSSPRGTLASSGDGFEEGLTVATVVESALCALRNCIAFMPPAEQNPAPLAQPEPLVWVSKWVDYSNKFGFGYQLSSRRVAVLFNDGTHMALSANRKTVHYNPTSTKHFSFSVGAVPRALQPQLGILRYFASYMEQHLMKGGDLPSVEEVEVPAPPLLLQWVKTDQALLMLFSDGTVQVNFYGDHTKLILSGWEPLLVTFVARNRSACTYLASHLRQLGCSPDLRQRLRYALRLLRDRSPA

[21] = molecular target: GRK4 (human) (UniProt P32298)
[22] = molecular target: BMPR2 (human) (UniProt Q13873)
[23] = molecular target: RIOK2 (human) (UniProt Q9BVS4)
Chain of RIOK2 (human) (Q9BVS4 whole entry, looked up): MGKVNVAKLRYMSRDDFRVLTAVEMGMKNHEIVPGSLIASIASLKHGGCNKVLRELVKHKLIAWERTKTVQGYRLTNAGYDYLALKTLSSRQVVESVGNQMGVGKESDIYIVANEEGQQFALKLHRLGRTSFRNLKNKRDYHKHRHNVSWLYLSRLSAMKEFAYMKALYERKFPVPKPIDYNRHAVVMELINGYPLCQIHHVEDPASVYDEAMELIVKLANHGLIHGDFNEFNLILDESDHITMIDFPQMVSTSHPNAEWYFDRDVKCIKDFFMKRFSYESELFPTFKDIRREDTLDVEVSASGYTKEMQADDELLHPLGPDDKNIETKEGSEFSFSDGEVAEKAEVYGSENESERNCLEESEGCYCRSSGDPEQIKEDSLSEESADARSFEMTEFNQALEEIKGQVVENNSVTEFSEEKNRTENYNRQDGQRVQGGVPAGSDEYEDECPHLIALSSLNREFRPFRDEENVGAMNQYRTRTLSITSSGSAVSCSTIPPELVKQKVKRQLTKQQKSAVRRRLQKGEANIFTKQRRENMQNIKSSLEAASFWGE

[24] = molecular target: MAP2K4 (human) (UniProt P45985)
Chain of MAP2K4 (human) (P45985 whole entry, looked up): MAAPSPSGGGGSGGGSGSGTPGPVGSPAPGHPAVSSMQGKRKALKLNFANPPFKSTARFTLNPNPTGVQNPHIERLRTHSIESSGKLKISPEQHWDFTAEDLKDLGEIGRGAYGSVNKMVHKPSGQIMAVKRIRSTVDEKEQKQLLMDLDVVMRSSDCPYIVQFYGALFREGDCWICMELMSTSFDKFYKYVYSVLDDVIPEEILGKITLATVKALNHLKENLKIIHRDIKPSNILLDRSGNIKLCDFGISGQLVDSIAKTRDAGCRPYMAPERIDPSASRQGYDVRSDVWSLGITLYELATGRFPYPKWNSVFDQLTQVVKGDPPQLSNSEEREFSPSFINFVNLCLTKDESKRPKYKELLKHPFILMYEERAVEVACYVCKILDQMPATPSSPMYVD

[25] = molecular target: NEK9 (human) (UniProt Q8TD19)
[26] = molecular target: PIK3CD (human) (UniProt O00329)
[27] = molecular target: DDR2 (human) (UniProt Q16832)
Chain of DDR2 (human) (Q16832 whole entry, looked up): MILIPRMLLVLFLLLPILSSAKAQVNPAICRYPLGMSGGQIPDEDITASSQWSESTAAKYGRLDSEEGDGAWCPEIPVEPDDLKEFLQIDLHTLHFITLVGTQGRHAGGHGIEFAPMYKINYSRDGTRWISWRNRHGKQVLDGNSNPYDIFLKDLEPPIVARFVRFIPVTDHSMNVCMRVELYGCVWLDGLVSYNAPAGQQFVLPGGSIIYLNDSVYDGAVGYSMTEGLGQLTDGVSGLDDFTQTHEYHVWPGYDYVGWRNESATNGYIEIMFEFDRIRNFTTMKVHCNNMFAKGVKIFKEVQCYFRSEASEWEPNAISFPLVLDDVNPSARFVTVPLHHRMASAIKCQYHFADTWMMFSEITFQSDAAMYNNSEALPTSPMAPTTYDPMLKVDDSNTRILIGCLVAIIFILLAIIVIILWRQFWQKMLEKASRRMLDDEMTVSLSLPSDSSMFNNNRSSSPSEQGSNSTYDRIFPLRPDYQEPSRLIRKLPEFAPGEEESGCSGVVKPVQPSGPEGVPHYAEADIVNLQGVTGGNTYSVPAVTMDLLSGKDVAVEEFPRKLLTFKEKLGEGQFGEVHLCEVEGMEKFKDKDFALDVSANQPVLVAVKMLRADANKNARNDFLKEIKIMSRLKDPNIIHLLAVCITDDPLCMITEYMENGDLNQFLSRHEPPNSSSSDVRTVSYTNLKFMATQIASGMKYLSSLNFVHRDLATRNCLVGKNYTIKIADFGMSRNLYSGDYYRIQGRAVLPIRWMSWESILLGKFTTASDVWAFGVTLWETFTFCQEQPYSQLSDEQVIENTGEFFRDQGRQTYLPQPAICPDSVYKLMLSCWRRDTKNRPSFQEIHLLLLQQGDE

[28] = molecular target: MLTK (human) (UniProt Q9NYL2)
[29] = molecular target: PIK3C2B (human) (UniProt O00750)
[30] = molecular target: YSK4 (human) (UniProt Q56UN5)
[31] = test system: FGFR3 (human), P22607 [G697C]
[32] = molecular target: PHKG2 (human) (UniProt P15735)
Chain of PHKG2 (human) (P15735 whole entry, looked up): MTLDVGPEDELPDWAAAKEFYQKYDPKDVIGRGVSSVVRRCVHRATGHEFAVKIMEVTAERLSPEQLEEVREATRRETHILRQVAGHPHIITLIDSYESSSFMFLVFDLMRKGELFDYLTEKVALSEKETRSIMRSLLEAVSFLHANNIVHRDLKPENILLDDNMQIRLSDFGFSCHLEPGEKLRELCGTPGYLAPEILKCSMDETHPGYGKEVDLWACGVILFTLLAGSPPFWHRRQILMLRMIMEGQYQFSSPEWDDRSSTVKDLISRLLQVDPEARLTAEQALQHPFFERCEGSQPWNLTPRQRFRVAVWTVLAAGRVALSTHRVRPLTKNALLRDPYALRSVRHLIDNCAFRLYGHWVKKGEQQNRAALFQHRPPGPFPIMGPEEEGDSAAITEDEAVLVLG

[33] = molecular target: MAPK7 (human) (UniProt Q13164)
[34] = test system: BMX (human), P51813 [V600E]
[35] = molecular target: RPS6KA4 KD1 (human) (UniProt O75676)
[36] = molecular target: MAPK12 (human) (UniProt P53778)
Chain of MAPK12 (human) (P53778 whole entry, looked up): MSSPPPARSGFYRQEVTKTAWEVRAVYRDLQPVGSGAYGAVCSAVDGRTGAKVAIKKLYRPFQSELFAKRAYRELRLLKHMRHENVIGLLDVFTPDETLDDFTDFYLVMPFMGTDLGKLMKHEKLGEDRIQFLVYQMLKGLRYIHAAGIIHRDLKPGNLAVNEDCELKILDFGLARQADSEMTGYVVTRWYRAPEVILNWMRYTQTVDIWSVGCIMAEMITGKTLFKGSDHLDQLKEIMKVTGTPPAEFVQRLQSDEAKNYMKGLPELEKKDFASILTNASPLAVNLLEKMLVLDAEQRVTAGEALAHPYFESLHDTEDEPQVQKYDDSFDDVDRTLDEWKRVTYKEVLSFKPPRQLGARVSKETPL

[37] = molecular target: PLK2 (human) (UniProt Q9NYY3)
[38] = molecular target: SIK1 (human) (UniProt P57059)
[39] = molecular target: OXSR1 (human) (UniProt O95747)
Chain of OXSR1 (human) (O95747 whole entry, looked up): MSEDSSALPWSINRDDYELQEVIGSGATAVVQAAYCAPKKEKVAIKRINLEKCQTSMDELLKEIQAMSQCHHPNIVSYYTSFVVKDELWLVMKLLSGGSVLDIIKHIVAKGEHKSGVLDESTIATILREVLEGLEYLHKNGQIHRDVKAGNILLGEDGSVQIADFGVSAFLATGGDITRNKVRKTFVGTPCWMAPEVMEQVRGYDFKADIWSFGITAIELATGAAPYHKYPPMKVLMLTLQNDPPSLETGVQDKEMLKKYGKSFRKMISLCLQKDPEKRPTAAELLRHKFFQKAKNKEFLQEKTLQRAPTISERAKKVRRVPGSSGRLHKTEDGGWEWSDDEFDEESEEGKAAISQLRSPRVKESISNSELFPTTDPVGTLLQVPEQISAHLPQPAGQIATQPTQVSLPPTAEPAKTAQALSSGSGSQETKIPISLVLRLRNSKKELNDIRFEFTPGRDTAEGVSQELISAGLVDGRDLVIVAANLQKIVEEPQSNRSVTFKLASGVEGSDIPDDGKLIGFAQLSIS

[40] = molecular target: TNK2 (human) (UniProt Q07912)

Chain of ACVR1B (human) (P36896 whole entry, looked up): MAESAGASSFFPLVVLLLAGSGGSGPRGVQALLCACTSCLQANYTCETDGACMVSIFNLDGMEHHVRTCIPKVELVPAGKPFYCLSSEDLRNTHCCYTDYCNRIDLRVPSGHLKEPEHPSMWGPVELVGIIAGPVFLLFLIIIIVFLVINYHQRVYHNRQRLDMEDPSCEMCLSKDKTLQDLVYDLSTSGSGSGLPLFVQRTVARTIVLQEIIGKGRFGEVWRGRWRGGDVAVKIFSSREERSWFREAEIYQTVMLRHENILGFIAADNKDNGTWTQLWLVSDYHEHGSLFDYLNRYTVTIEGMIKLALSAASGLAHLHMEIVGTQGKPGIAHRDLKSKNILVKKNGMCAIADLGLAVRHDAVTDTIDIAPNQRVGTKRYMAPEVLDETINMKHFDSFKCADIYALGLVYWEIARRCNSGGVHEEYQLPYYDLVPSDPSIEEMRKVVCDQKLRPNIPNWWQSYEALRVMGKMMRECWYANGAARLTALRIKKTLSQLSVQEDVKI
Chain of PAK6 (human) (Q9NQU5 whole entry, looked up): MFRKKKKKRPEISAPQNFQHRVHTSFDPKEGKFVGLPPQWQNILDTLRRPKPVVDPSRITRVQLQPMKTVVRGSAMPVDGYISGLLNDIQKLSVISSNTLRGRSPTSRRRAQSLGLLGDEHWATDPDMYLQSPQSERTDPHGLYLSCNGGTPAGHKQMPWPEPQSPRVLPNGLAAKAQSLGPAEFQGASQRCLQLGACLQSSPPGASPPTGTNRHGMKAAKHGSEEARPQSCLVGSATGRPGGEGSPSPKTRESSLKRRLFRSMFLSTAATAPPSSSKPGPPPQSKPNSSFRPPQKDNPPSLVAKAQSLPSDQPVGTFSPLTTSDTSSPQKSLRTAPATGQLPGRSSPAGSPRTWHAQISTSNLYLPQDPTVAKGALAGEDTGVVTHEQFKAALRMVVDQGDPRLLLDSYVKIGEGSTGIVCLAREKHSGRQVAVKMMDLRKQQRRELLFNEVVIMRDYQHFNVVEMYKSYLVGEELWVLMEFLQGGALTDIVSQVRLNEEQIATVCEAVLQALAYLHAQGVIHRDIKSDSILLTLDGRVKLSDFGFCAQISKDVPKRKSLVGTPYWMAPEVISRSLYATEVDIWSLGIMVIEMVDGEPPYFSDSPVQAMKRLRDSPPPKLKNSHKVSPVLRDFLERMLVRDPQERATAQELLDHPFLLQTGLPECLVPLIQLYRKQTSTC

Row | Structure (SMILES) | kinase still bound, per cent of control [1] | kinase still bound, per cent of control [2] | kinase still bound, per cent of control [3] | kinase still bound, per cent of control [4] | kinase still bound, per cent of control [5] | kinase still bound, per cent of control [6] | kinase still bound, per cent of control [7] | kinase still bound, per cent of control [8] | kinase still bound, per cent of control [9] | kinase still bound, per cent of control [10] | kinase still bound, per cent of control [11] | kinase still bound, per cent of control [12] | kinase still bound, per cent of control [13] | kinase still bound, per cent of control [14] | kinase still bound, per cent of control [15] | kinase still bound, per cent of control [16] | kinase still bound, per cent of control [17] | kinase still bound, per cent of control [18] | kinase still bound, per cent of control [19] | kinase still bound, per cent of control [20] | other results
1 | COc1cc2ncnc(Nc3cccc(Cl)c3)c2cc1OC | 94% | 34% | 30% | 100% | 75% | 31% | 35% | 100% | 100% | 91% | 37% | 98% | 55% | 73% | 72% | 19% | 71% | 46% | 74% | 85% | kinase still bound, per cent of control [21]: 100%; kinase still bound, per cent of control [22]: 100%; kinase still bound, per cent of control [23]: 43%; kinase still bound, per cent of control [24]: 85%; kinase still bound, per cent of control [25]: 78%; kinase still bound, per cent of control [26]: 71%; kinase still bound, per cent of control [27]: 42%; kinase still bound, per cent of control [28]: 94%; kinase still bound, per cent of control [29]: 7.6%; kinase still bound, per cent of control [30]: 3.2%; kinase still bound, per cent of control [31]: 100%; kinase still bound, per cent of control [32]: 93%; kinase still bound, per cent of control [33]: 100%; kinase still bound, per cent of control [34]: 55%; kinase still bound, per cent of control [35]: 100%; kinase still bound, per cent of control [36]: 100%; kinase still bound, per cent of control [37]: 44%; kinase still bound, per cent of control [38]: 100%; kinase still bound, per cent of control [39]: 71%; kinase still bound, per cent of control [40]: 61%
2 | N#Cc1cc(-c2ccnc(Nc3ccc(-n4cnc(-c5cccnc5)n4)cc3)n2)cc(N2CCOCC2)c1 | 58% | 48% | 12% | 76% | 48% | 2.8% | 73% | 84% | 72% | 100% | 85% | 99% | 100% | 100% | 52% | 53% | 30% | 85% | 48% | 93% | kinase still bound, per cent of control [21]: 37%; kinase still bound, per cent of control [22]: 72%; kinase still bound, per cent of control [23]: 1.4%; kinase still bound, per cent of control [24]: 2.8%; kinase still bound, per cent of control [25]: 63%; kinase still bound, per cent of control [26]: 100%; kinase still bound, per cent of control [27]: 100%; kinase still bound, per cent of control [28]: 17%; kinase still bound, per cent of control [29]: 76%; kinase still bound, per cent of control [30]: 0.25%; kinase still bound, per cent of control [31]: 90%; kinase still bound, per cent of control [32]: 81%; kinase still bound, per cent of control [33]: 100%; kinase still bound, per cent of control [34]: 72%; kinase still bound, per cent of control [35]: 100%; kinase still bound, per cent of control [36]: 80%; kinase still bound, per cent of control [37]: 98%; kinase still bound, per cent of control [38]: 73%; kinase still bound, per cent of control [39]: 96%; kinase still bound, per cent of control [40]: 61%
